Test results: patent US5618791A, “Memory enhancing peptides” (Shanghai Institute of Biochemistry, priority 1992, dated 1997)
Square brackets hold non-standard residues; d marks the D form. Ends that are not written are not given here. Peptide text beside a SMILES is read from it. pGlu = O=C1CC[C@@H](C(=O)O)N1; Hme = not defined here

What was measured:
adult rats [1] = assay: Passive avoidance response of adult rats, step-through one trial learning test in a shuttle box; format: in vivo
Description: (§1) Biological activities of MEPs of the invention are confirmed by bioassay. Blood pressure measurements and urine output measurements were performed on adult rats after intravenous administration of MEPs under ether anesthesia. Passive avoidance behavior of adult rats was carried out in a step-through one trial learning test in a shuttle box, and brightness discrimination tests were performed in a radiant Y maze. Rats neonatally administered with MEPs of the invention were trained during an immature period and subsequently tested as adults.
(§2) Memory enhancing responses were assessed by two kinds of behavioral records, i.e., passive avoidance response of adult rats in a shuttle box and the performance in a radiant Y maze in the acquisition and retention of brightness discrimination of rats neonatally administered. The results are set out in Table I. All MEPs of the invention show significant positive behavioral responses when rats have received a subcutaneous administration of MEP within the dosage range 1 ng-1 μg per animal. MEPs of the invention show a memory enhancing potency 10-100 times that of AVP.

adult rats [2] = conditions: cited from earlier work
rats = assay: Brightness discrimination test in a radiant Y maze; format: in vivo, rat; conditions: adult rats; oral 20 μg/kg/day for 30 days
Description: as §1, §2
Additionally, oral administration of NLPR to adult rats at a dose of 20 μg/kg/day for 30 days produced a positive brightness discrimination assay.

Compound | Passive Avoidance adult rat effective dose (adult rats [1]) | acquisition of active or passive avoidance responses (adult rats [2]) | extinction of active or passive avoidance responses (adult rats [2]) | brightness discrimination assay (rats)
NC(=O)CC[C@@H]1NC(=O)[C@H](Cc2ccccc2)NC(=O)[C@H](Cc2ccc(O)cc2)NC(=O)[C@@H](N)CSSC[C@@H](C(=O)N2CCC[C@H]2C(=O)N[C@@H](CCCN=C(N)N)C(=O)NCC(N)=O)NC(=O)[C@H](CC(N)=O)NC1=O [AVP, arginine vasopressin] | 300-1000 ng/200 g body wt. | no effect | retarded | 
CC(C)C[C@H](NC(=O)[C@@H](N)CC(N)=O)C(=O)N1CCC[C@H]1C(=O)N[C@@H](CCCNC(=N)N)C(=O)O [NLPR] (H-NLPR-OH) | 3-10 ng/200 g body wt. |  |  | positive
CC(=O)N[C@@H](CC(N)=O)C(=O)N[C@@H](CC(C)C)C(=O)N1CCC[C@H]1C(=O)N[C@@H](CCCNC(=N)N)C(N)=O [AcNLPR--NH2] (Ac-NLPR-NH2) | 3-10 ng/200 g body wt. |  |  | 
CC(C)C[C@H](NC(=O)[C@H](CC(N)=O)NC(=O)[C@@H]1CCC(=O)N1)C(=O)N1CCC[C@H]1C(=O)N[C@@H](CCCNC(=N)N)C(=O)O [ZNLPR] ([pGlu]NLPR-OH) | 10 ng/200 g body wt. |  |  | 
ZN(Hme)PR: pyroglutamyl-Asn-Hme-Pro-Arg; Hme = Homomethionine (Smethylcysteine) ([pGlu]N[Hme]PR; reading uncertain; also: printed as ZN(Hme)PR) | 10-100 ng/200 g body wt. |  |  | 
